In US20100120690A1, “Polypeptides Having Antimicrobial Activity and Polynucleotides Encoding Same” (Novozymes Adenium Biotech A/S, priority 2005, published 2010):

Assays:
[1] = system: S. epidermis; test: Minimal Effective Concentration (MEC) assay; format: cell-based, Staphylococcus epidermidis
Description: (§1) Three antimicrobial polypeptides, which are variants of SEQ ID NO: 1, were tested for antimicrobial activity. A Minimal Effective Concentration assay (MEC, expressed as micrograms/mL) against different microorganisms was performed using the three plectasin mutants, Y40YR, N17R and Y25R following the protocol described in the book of Methods in Molecular Biology, Vol. 78, Antibacterial peptide protocol William M. Shafer, Human Press.

[2] = system: B. subtilis; test: Minimal Effective Concentration (MEC) assay; format: cell-based, Bacillus subtilis
Description: as §1

[3] = system: Staphylococcus aureus, ATCC 29213; test: MIC, NCCLS/CLSI guidelines (Example 5), strain A; format: cell-based; conditions: average of two independent experiments
Procedure, shortened: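 Recombinant plectasin variants, expressed and purified; MIC per NCCLS/CLSI; n=2 independent expts, averaged; reported as category vs wild-type MIC (0 >100%, 1 80-100%, 2 50-80%, 3 <50%).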

[4] = system: B. subtilis; test: Minimal Inhibitory Concentration, NCCLS guidelines (Example 4); format: cell-based, Bacillus subtilis; conditions: purified peptide
Description: The Minimal Inhibitory Concentration (MIC, micrograms/mL) was determined to test for their antimicrobial activity following the NCCLS guidelines (Clinical and Laboratory Standards Institute; formerly known as National Committee for Clinical and Laboratory Standards).

[5] = system: Staphylococcus aureus, MRSA ST80 (2003); test: MIC, NCCLS/CLSI guidelines (Example 5), strain E; format: cell-based; conditions: average of two independent experiments
Procedure, shortened: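 Purified Plectasin variants were tested for MIC per NCCLS/CLSI guidelines; strains D and E are multi-resistant clinical human MRSA isolates. MICs average two independent experiments and are scored relative to wild-type Plectasin MIC: 0 >100%, 1 80-100%, 2 50-80%, 3 <50%.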

[6] = system: M. luteus; test: Minimal Effective Concentration (MEC) assay; format: cell-based, Micrococcus luteus
Description: as §1

[7] = system: Staphylococcus carnosus; test: TAPS (Trans Acting Peptide System) assay, radial diffusion read-out; format: cell-based; parameters: key: classified as 4>3>2>1; whereas 4 is better than 1; classified as 4>3>2>1; classified as 4>3>2>1; wildtype activity corresponds to 1; conditions: peptide expressed in E. coli
Description: A range of antimicrobial polypeptides, which are variants of SEQ ID NO: 1, were tested in the TAPS assay. TAPS may be used to identify new or improved genes encoding peptides that can kill or inhibit the growth of target cells (see PCT application WO 2004/033715). The TAPS assay, an acronym for Trans Acting Peptide System, is based on having a sensitive host producing a peptide followed by screening for its activity in trans against an indicator strain. The advantage of this system is based on that the antimicrobial peptide is expressed in the Gram-negative bacterium E. coli and its antimicrobial activity can be monitored on different microbes including Gram-negatives, positives or fungi. Additionally, TAPS offers the possibility to produce correctly folded AMPs containing disulfide bonds in the host cells, thereby retaining their antimicrobial activities.
The TAPS approach requires first, that expression of the peptide is under control of an inducible promoter with tight regulation, because the host cells are sensitive to the peptide when producing it. Secondly, the produced peptide has to be released to the media so that it can interact with the target organism.
The TAPS screening can be carried out either in solid or liquid media. On solid media, a plasmid library is initially introduced into E. coli host cells. […] In the next step, the filter containing the colonies is transferred to LB growth medium containing inducer (0.1% arabinose) to permit peptide synthesis. Subsequently, the target strain, for example S. carnosus, is overlaid onto the plate and allowed to grow for 12-16 hours at 37° C. Finally, visual inspection of the host cells capable of reducing the proliferation of the target cells is performed and the nucleotide sequence encoding for the antimicrobial peptide is recovered from the host cells. DNA sequence analysis of the variants is obtained to elucidate the nature of the peptide.
As mentioned above, the TAPS screening can also be performed using liquid medium. This procedure requires the use of robotics to analyze large number of clones. In this system, the host E. coli origami cells are transformed with the plasmid library and plated out on LB medium+0.2% glucose+ampicillin (200 mg/L). Independent colonies are then inoculated into 96 or 384-well plates containing 200 micro-L of TB medium+ampicillin (200 mg/L) and cultured overnight at 37° C. These cultures are then replicated robotically and grown to exponential phase until inducer (0.1% arabinose) is added to trigger peptide synthesis. The next step consists in hydrolyzing the cells such that the peptide is released to the media by hot acid hydrolysis. This treatment consists on adding 1 M sodium Phosphate buffer pH 2.3 to obtain a final pH approximately of 2.3 and incubating the cultures overnight at 80° C. Next day, a 25 micro-L aliquot of the hydrolyzed cultures is used to perform an activity test against the desired target organisms. The activity test performed was a Radial Diffusion Assay (RDA) where an aliquot of the hydrolyzed cultures was added to the agarose media inoculated with the target strain, S. carnosus. […] Measurements of the diameter of the clearing zones were performed to quantify the potency of the antimicrobial activity of the peptides.
The antimicrobial activity (against Staphylococcus carnosus) of the tested plectasin variants, which was measured using the TAPS assay, is shown in table 3. The antimicrobial activity corresponds to the clearing zone size and has been classified as 4>3>2>1; whereas 4 is better than 1, and wildtype activity corresponds to 1.

Sequence: GFGCNGPWDEDDMQCHNHCKSIKGYKGGYCAKGGFVCKCY (listed as Pseudoplectania nigrella) [wildtype, wildtype plectasin, parent antimicrobial polypeptide, reference compound]
- MEC against S. epidermis [1]: 0.98 micrograms/mL
- MEC against B. subtilis [2]: 0.09 micrograms/mL
- MIC, strain A [3]: (8 μg/mL)
- Relative MIC, strain A ([3]; relative to wildtype Plectasin): 1 (80-100% of Plectasin wildtype MIC)
- MIC against B. subtilis [4]: 1 micrograms/mL
- MIC, strain E [5]: (22 μg/mL)
- Relative MIC, strain E ([5]; relative to wildtype Plectasin): 1 (80-100% of Plectasin wildtype MIC)
- MEC against M. luteus [6]: 1.89 micrograms/mL
- Activity (antimicrobial activity, clearing zone size) [7]: 1
